Results on one compound are retold here after ChEMBL document CHEMBL5316290, “Targeted Protein Degradation Induced by HEMTACs Based on HSP90” (J Med Chem, 2023).

pIC50, pKd: −log10 of the molar value. Active and inactive are the calls of the source. No cut-off for these calls is given here.

In data set [1] the test system is B16-F10. In words: Induction of apoptosis in mouse B16-F10 cells assessed as live cells at 125 nM incubated for 48 hrs by Annexin V-FITC/PI staining based flow cytometry analysis (reference value: 92.85 %). It counts as functional. For orientation: Flow cytometry measures light scatter and fluorescence of single cells or particles in a stream.
The test system of data set [2] is B16-F10. In words: Binding affinity to HSP90/CDK6 in mouse B16-F10 assessed as ternary complex formation at 5 uM incubated for 6 hrs by co-immunoprecipitation assay. The class given is cell-based.
Data set [3] concerns the target T1, HSP90/Cyclin-dependent kinase 4 (Mus musculus) (UniProt P30285+P07901+P11499). Nature of the data set: HEMTAC activity at HSP90/CDK4 in mouse B16-F10 cells assessed as reduction in CDK4 protein level at 0.5 uM incubated for 24 hrs by global proteomics analysis. It counts as cell-based.
Data set [4] addresses T1, HSP90/Cyclin-dependent kinase 4 (Mus musculus). In words: HEMTAC activity at HSP90/CDK4 in mouse B16-F10 cells assessed as induction of CDK4 degradation at 0.1 uM incubated for 24 hrs in presence of palbociclib by Western blot analysis. It counts as cell-based.
Data set [5] concerns the target T2, HSP90/Cyclin-dependent kinase 6 (Mus musculus) (UniProt P07901+Q64261+P11499). In words: HEMTAC activity at HSP90/CDK6 in mouse B16-F10 cells assessed as reduction in CDK6 protein level at 0.5 uM incubated for 24 hrs by global proteomics analysis. The class given is cell-based.
A further data set concerns Lung. Nature of the data set: Downregulation of CDK4/6 protein level in lung of C57BL/6J mouse implanted with mouse B16-F10 cells at 20 mg/kg, ip administered once daily for 2 weeks and measured every 2 days by immunohistochemical analysis. It counts as functional, organism-based.
Data set [6] deals with T1, HSP90/Cyclin-dependent kinase 4 (Mus musculus). In words: HEMTAC activity at HSP90/CDK4 in mouse B16-F10 cells assessed as induction of CDK4 degradation at 0.5 uM measured after 12 hrs by Western blot analysis. The class given is cell-based. On the technique in general: In western blotting, separated proteins are transferred to a membrane and probed.
Data set [7] deals with B16-F10. In words: Induction of apoptosis in mouse B16-F10 cells assessed as early apoptotic cells at 125 nM incubated for 48 hrs by Annexin V-FITC/PI staining based flow cytometry analysis (reference value: 3.42%). It counts as functional.
Data set [8] addresses Heat shock protein HSP 90-alpha (Homo sapiens, UniProt P07900). Nature of the data set: Binding affinity to CM5 sensor chip immobilized human HSP90alpha assessed as dissociation constant by SPR analysis. (SPR reads the build-up and loss of mass on a sensor chip optically.)
For the next data set, the system named is HepG2. In words: Cytotoxicity against human HepG2 cells assessed as inhibition of cell growth incubated for 72 hrs by CCK-8 assay. It counts as functional, cell-based. The settings on record: HepG2, 72 h.
The subject of a further data set is HFF-1. In words: Cytotoxicity against human HFF-1 cells assessed as reduction of cell viability incubated for 72 hrs by CCK-8 assay. The settings on record: hff-1, 72 h. The class given is toxicity, cell-based.
The subject of data set [9] is B16-F10. In words: Anticancer activity against mouse B16-F10 cells xenografted in zebra fish embryos assessed as inhibition of cell growth at 1 uM measured at 6 days post fertilization. The settings on record: time 6.0 day. The class given is functional, cell-based.
For data set [10], the target named is T2, HSP90/Cyclin-dependent kinase 6 (Mus musculus). In words: HEMTAC activity at HSP90/CDK6 in mouse B16-F10 cells assessed as induction of CDK6 degradation at 0.1 uM incubated for 24 hrs in presence of palbociclib by Western blot analysis. It counts as cell-based.
Another data set deals with A549. Nature of the data set: Cytotoxicity against human A549 cells assessed as inhibition of cell growth incubated for 72 hrs by CCK-8 assay. The class given is functional, cell-based. The note with it: A549, 72 h.
Data set [11] has as its system B16-F10. In words: Binding affinity to HSP90/CDK4 in mouse B16-F10 assessed as ternary complex formation at 5 uM incubated for 6 hrs by co-immunoprecipitation assay. It counts as cell-based.

Broadly, the pKd is the Kd on a negative log10 scale, so that one unit is a factor of ten. The term pIC50 denotes the IC50 on a negative log10 scale, so that one unit is a factor of ten. As to `COc1c(C)cnc(Cn2cc(C#CCCn3cc(CNC(=O)CN4CCN(c5ccc(Nc6ncc7c(C)c(C(C)=O)c(=O)n(C8CCCC8)c7n6)nc5)CC4)nn3)c3c(Cl)nc(N)nc32)c1C`, the Activity is reported as 72.27% in the data set with B16-F10 [1], 14.42% in the data set on B16-F10 [7] and “Non-Toxic” in the data set on HFF-1. Further, the result (with B16-F10 [2]; in data set [3]; in data set [5]; in data set [6]; in the data set on B16-F10 [11]) was Active. In addition, the outcome (in data set [4]; with Lung; in data set [10]) was inactive. The pKd in [8] was 6.45. Also, the results for the pIC50 in the data set with HepG2 and with A549 were 6.30 and 6.07, respectively. Besides, in the data set on B16-F10 [9], the inhibition result was “Active”.
